Measured values published in patent US12251417B2, “Antimicrobial compounds from the genus Delftia” (Ministry of Health, State of Israel, priority 2017, dated 2025).
Converted amounts (≈) assume the structure as drawn. Square brackets hold non-standard residues; d marks the D form. Peptide text beside a SMILES is read from it. * marks the point of attachment. ξ: configuration not given here. NH(1-OH-2-oxopiperidin-3-yl) = O=C1C(N*)CCCN1O; ξOrn(N(OH)CHO) = NC(CCCN(O)C=O)C(=O)O; ξAsp(3ξ-OH) = NC(C(=O)O)C(O)C(=O)O; X1 = CC(N)C(O)C(C)C(=O)*; Dhb = C/C=C(\N)C(=O)O

Assays:
Deftia strain 2189 = test: Delftibactin A as carrier of gallium; format: cell-based, Delftia; conditions: with gallium
Description: FIG. 36 is a graph illustrating that Delftibactin A can be used as a carrier of inhibitory antimicrobial agents such as gallium to inhibit harmful bacterial strains such as Deftia strain 2189.

C. albicans ATCC64124 = test: Broth microdilution MIC; format: cell-based; conditions: lowest concentration that inhibited ≥50% of growth after overnight incubation
Experimental: Deftibactin A was serially diluted in DMSO with a dilution factor of 2, to provide 10 concentrations for all the assays. The MIC is defined as the lowest concentration of compound that inhibited ≥90% or ≥50% of the growth of a microorganism after overnight incubation. Genedata Screener software (Genedata, Inc., Basel, Switzerland) was used to analyze the data and to determine the MICs and calculate the RZ′ factor, to estimate the robustness of the assays. Delftibactin A was tested on two different days and in triplicate.
Broth microdilution was used to determine the minimal inhibitory concentration (MIC) according to the standards of the Clinical and Laboratory Standards Institute (CLSI) or the European Committee on Antimicrobial Susceptibility Testing (EUCAST). Cation-adjusted Mueller-Hinton broth (CAMHB) was used with inoculum of about 5×10^5 cfu ml^−1 of the tested pathogen. Direct suspension of overnight colonies into CAMHB was used for the generation of the bacterial suspension. The tested inhibited compound or supernatant was used in doubling dilutions in 50 μl of CAMHB and inoculated with an equal amount of bacteria in the broth.

[1] = tested on: vancomycin resistant enterococci (VRE); test: Inhibition of VRE by Delftibactin A alone and with antibiotics; format: cell-based
Description: FIG. 33 is a graph illustrating that Delftibactin A inhibits Vancomycin Resistant Enterococci (VRE).

HepG2 = test: MTT cytotoxicity assay; format: cell-based, human; conditions: 24/72 hours
Description: (§1) MTT (3-(4,5-Dimethylthiazol-2-yl)-2,5-diphenyltetrazolium bromide) is a colorimetric assay for measuring the activity of cellular enzymes that reduce the tetrazolium dye, MTT, to its insoluble formazan, giving a purple color. This assay measure mitochondrial metabolic activity via NAD(P)Hdependent cellular oxidoreductase enzymes and may, under defined conditions, reflect the number of viable cells. The cells used in this study were: Hep G2 (HB-8065) is a perpetual cell line which was derived from the liver tissue of a person with a well-differentiated hepatocellular carcinoma. THLE-2 is a perpetual cell line which was derived from the liver epithelial cells of an adult human transformed with SV40 large T antigen.
(§2) The assay: cell concentration treatment 24 hours: Cells were seeded at a concentration of 2×10^4 cells/well in 200 μl culture medium and incubated at 37° C. in 5% CO2. Cell concentration treatment 72 hours: Cells were seeded at a concentration of 1×10^4 cells/well in 200 μl culture medium and incubated at 37° C. in 5% CO2. After 24 hours, the medium was replaced with a final volume of 200 μl and 1 μl of compound (dilution 1/200) and controls were added to the plates. […]
(§3) When extracts/compounds and controls were added, plates were incubated at 37° C. in 5% CO2 incubator for 24/72 hours. […] The absorbance was measured using a multireader Victor™ at a wavelength of 570 nm.

THLE2 = test: MTT cytotoxicity assay; format: cell-based, human; conditions: 24/72 hours
Description: as §1, §2, §3

C/C=C(\NC(=O)CNC(=O)C(NC(=O)C(NC(=O)C(C)C(O)C(C)N)C(O)C(=O)O)C(C)O)C(=O)NC(CCCN(O)C=O)C(=O)NC(CO)C(=O)NC(CCCN=C(N)N)C(=O)NC1CCCN(O)C1=O (stereo not shown) [Delftibactin A] (X1-[ξAsp(3ξ-OH)]TG[Dhb][ξOrn(N(OH)CHO)]SR-{NH(1-OH-2-oxopiperidin-3-yl)}; configuration not given here)
inhibition of Deftia strain 2189 as carrier of gallium (Deftia strain 2189): inhibit | MIC50 (C. albicans ATCC64124): 16 µg/mL (≈ 15.5 µM) | inhibition of vancomycin resistant enterococci (VRE) [1]: inhibits | combined antimicrobial effect with clarithromycin on VRE ([1]; Delftibactin A 10 μM): additive combined antimicrobial effect | combined antimicrobial effect with rifampicin on VRE ([1]; Delftibactin A 10 μM): additive combined antimicrobial effect | cytotoxic activity (MTT) (HepG2): not have cytotoxic activity | cytotoxic activity (MTT) (THLE2): not have cytotoxic activity
